Measurements reported in US8664206B2, “Diastereomers of 2-methylene-19-nor-22-methyl-1α,25-dihydroxyvitamin D3” (Wisconsin Alumni Research Foundation, priority 2010, dated 2014).
Entries after “also recorded” stand apart in the source; their conditions may differ.

Tests used:
[1] = test system: 24-hydroxylase (24OHase) gene promoter; assay: In vitro transcription assay (24-hydroxylase promoter-luciferase in ROS 17/2.8 bone cells); type: cell-based, rat; conditions: for EC50: Rattus norvegicus; for 24OHase Transcription Relative Activity: relative to the native hormone 1,25(OH)2D3 in the same assay, (value for native hormone)/(value for working example), >1 = more active
Experimental: Transcription activity was measured in ROS 17/2.8 (bone) cells that were stably transfected with a 24-hydroxylase (24OHase) gene promoter upstream of a luciferase reporter gene (Arbour et al., 1998). Cells were given a range of doses. Sixteen hours after dosing the cells were harvested and luciferase activities were measured using a luminometer. RLU=relative luciferase units.

[2] = test system: Sprague-Dawley rats; assay: Bone calcium mobilization (serum calcium); type: in vivo, rat; conditions: for bone calcium mobilization activity compared with 1,25(OH)2D3 (in words): intraperitoneal doses
Experimental: (§1) Male, weanling Sprague-Dawley rats were placed on Diet 11 (0.47% Ca) diet+AEK oil for one week followed by Diet 11 (0.02% Ca)+AEK oil for 3 weeks. The rats were then switched to a diet containing 0.47% Ca for one week followed by two weeks on a diet containing 0.02% Ca. Dose administration began during the last week on 0.02% calcium diet. Four consecutive intraperitoneal doses were given approximately 24 hours apart. Twenty-four hours after the last dose, blood was collected from the severed neck and the concentration of serum calcium determined as a measure of bone calcium mobilization. The first 10 cm of the intestine was also collected for intestinal calcium transport analysis using the everted gut sac method.

[3] = test system: Sprague-Dawley rats; assay: Intestinal calcium transport (everted gut sac method); type: in vivo, rat; conditions: for net intestinal calcium transport, serosal to mucosal ratio / intestinal calcium transport activity compared with 1,25(OH)2D3 (in words): rat; for net intestinal calcium transport, serosal to mucosal ratio: relative to vehicle; for intestinal calcium transport activity compared with 1,25(OH)2D3 (in words): intraperitoneal doses
Experimental: as §1

[4] = test system: HL-60 cells; assay: HL-60 differentiation (nitro blue tetrazolium reduction); type: cell-based, human; conditions: for HL-60 cell differentiation, times more potent than the native hormone: fold MORE potent/active than 1,25(OH)2D3; for EC50: Homo sapiens, HL-60; for HL-60 Differentiation Relative Activity: relative to the native hormone 1,25(OH)2D3 in the same assay, (value for native hormone)/(value for working example), >1 = more active
Experimental: The study drugs were dissolved in ethanol and the concentrations determined using UV spectrophotometry. Serial dilutions were prepared so that a range of drug concentrations could be tested without changing the final concentration of ethanol (≦0.2%) present in the cell cultures.
Human promyelocytic leukemia (HL60) cells were grown in RPMI-1640 medium containing 10% fetal bovine serum. The cells were incubated at 37° C. in the presence of 5% CO2.
HL60 cells were plated at 1.2×10^5 cells/ml. Eighteen hours after plating, cells in duplicate were treated with drug. Four days later, the cells were harvested and a nitro blue tetrazolium reduction assay was performed (Collins et al., 1979; J. Exp. Med. 149:969-974). The percentage of differentiated cells was determined by counting a total of 200 cells and recording the number that contained intracellular black-blue formazan deposits. Verification of differentiation to monocytic cells was determined by measuring phagocytic activity (data not shown).

[5] = target: T1, vitamin D receptor (full-length recombinant rat receptor) (Rattus norvegicus, UniProt P13053); assay: Vitamin D receptor competitive binding; conditions: for binding to the nuclear vitamin D receptor compared with 1,25(OH)2D3 (in words): competitive binding against 3H-1,25(OH)2D3, recombinant rat receptor; for Ki: read-out: Competitive VDR Binding (Ki)
T1 construct: Full-length recombinant rat receptor was expressed in E. coli; His tag (C); made in house; host or cells: E. coli BL21(DE3) Codon Plus RIL
T1 sequence (P13053 1-423): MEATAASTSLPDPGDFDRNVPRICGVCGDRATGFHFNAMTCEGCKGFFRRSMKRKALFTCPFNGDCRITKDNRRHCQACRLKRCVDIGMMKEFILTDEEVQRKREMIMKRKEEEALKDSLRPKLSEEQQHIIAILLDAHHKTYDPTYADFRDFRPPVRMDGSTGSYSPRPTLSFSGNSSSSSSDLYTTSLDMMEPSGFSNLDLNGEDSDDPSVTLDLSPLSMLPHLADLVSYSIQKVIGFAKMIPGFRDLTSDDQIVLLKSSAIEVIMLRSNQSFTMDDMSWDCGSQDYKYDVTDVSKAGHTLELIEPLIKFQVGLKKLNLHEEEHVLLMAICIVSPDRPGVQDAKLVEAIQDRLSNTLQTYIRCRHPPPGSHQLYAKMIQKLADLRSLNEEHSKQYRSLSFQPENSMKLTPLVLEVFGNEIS
Experimental: Full-length recombinant rat receptor was expressed in E. coli BL21(DE3) Codon Plus RIL cells and purified to homogeneity using two different column chromatography systems. The first system was a nickel affinity resin that utilizes the C-terminal histidine tag on this protein. The protein that was eluted from this resin was further purified using ion exchange chromatography (S-Sepharose Fast Flow). Aliquots of the purified protein were quick frozen in liquid nitrogen and stored at −80° C. until use. For use in binding assays, the protein was diluted in TEDK50 (50 mM Tris, 1.5 mM EDTA, pH 7.4, 5 mM DTT, 150 mM KCl) with 0.1% Chaps detergent. The receptor protein and ligand concentration was optimized such that no more than 20% of the added radiolabeled ligand was bound to the receptor.
Unlabeled ligands were dissolved in ethanol and the concentrations determined using UV spectrophotometry (1,25(OH)2D3: molar extinction coefficient=18,200 and λmax=265 nm; Analogs: molar extinction coefficient=42,000 and λmax=252 nm). Radiolabeled ligand (^3H-1,25(OH)2D3, ˜159 Ci/mmole) was added in ethanol at a final concentration of 1 nM.
Radiolabeled and unlabeled ligands were added to 100 mcl of the diluted protein at a final ethanol concentration of ≦10%, mixed and incubated overnight on ice to reach binding equilibrium. The following day, 100 mcl of hydroxylapatite slurry (50%) was added to each tube and mixed at 10-minute intervals for 30 minutes. The hydroxylapatite was collected by centrifugation and then washed three times with Tris-EDTA buffer (50 mM Tris, 1.5 mM EDTA, pH 7.4) containing 0.5% Titron X-100. After the final wash, the pellets were transferred to scintillation vials containing 4 ml of Biosafe II scintillation cocktail, mixed and placed in a scintillation counter. Total binding was determined from the tubes containing only radiolabeled ligand.

EC50 [1]	EC50 [4]	Ki [5]	Compound	24-hydroxylase transcription activity compared with 1,25(OH)2D3 (in words) ([1]; bone cells)	net intestinal calcium transport, serosal to mucosal ratio [3]	bone calcium mobilization activity compared with 1,25(OH)2D3 (in words) ([2]; rat)	24OHase Transcription Relative Activity [1]	intestinal calcium transport activity compared with 1,25(OH)2D3 (in words) [3]	cell differentiation activity (in words) [4]	HL-60 Differentiation Relative Activity [4]	binding to the nuclear vitamin D receptor compared with 1,25(OH)2D3 (in words) [5]	other results
–	–	–	C=C1C(O)CC(=CC=C2CCCC3(C)C2CCC3[C@H](C)[C@H](C)CCC(C)(C)O)CC1O (stereo partly drawn) [SAG-2, (20R,22R)-2-methylene-19-nor-22-methyl-1α,25-dihydroxyvitamin D3]	unexpectedly low in comparison to the native hormone	–	–	–	–	–	–	–	–
–	–	–	C=C1C(O)CC(=CC=C2CCCC3(C)C2CCC3[C@@H](C)CCCC(C)(C)O)CC1O (single isomer, unassigned) [20S isomer of 2MD, 2-methylene-19-nor-1α,25-dihydroxyvitamin D3, reference compound]	–	−0.9	–	–	–	–	–	–	net bone calcium mobilization activity ([2]; rat): 9.3 mg/dL; HL-60 cell differentiation, times more potent than the native hormone [4]: 27 times
0.008 nM	0.01 nM	0.07 nM	C=C1[C@H](O)CC(=C/C=C2\CCC[C@@]3(C)C2CC[C@@H]3[C@@H](C)[C@H](C)CCC(C)(C)O)C[C@H]1O (stereo partly drawn) [AGS-1, (20S,22R)-2-methylene-19-nor-22-methyl-1α,25-dihydroxyvitamin D3]	relatively high 24-hydroxylase transcription activity	4.3	more potent than 1,25-(OH)2D3; also recorded: does show activity with regard to net bone calcium mobilization; also recorded: more efficacious; also recorded: significantly higher bone calcium mobilization activity	38	more potent than 1,25-(OH)2D3; also recorded: higher potency in promoting intestinal calcium transport than the native hormone; also recorded: significantly higher	relatively high cell differentiation activity	300	approximately equally effective as 1,25-(OH)2D3; also recorded: same affinity as 1,25(OH)2D3; also recorded: bind the vitamin D receptor	Net Bone Ca2+ Mobilization ([2]; at 780 pM dosage): 5.3 mg/dL; transcription of the 24-hydroxylase gene, times more potent than 1,25(OH)2D3 ([1]; bone cells, fold MORE potent): ~40 times; Net Intestinal Ca2+ Transport (serosal Ca2+ to mucosal Ca2+ ratio, S/M) ([3]; at 780 pM dosage): 9.9
3 nM	20 nM	8 nM	C=C1[C@H](O)CC(=C/C=C2\CCC[C@@]3(C)C2CC[C@@H]3[C@@H](C)[C@@H](C)CCC(C)(C)O)C[C@H]1O (stereo partly drawn) [AGS-2, (20S,22S)-2-methylene-19-nor-22-methyl-1α,25-dihydroxyvitamin D3]	relatively high 24-hydroxylase transcription activity	–	much reduced ability to mobilize calcium from bone compared to 1,25-(OH)2D3; also recorded: no net calcemic activity on bone; also recorded: essentially no ability to mobilize bone calcium except at extremely high concentrations	0.1	significant net intestinal calcium transport; also recorded: comparable or slightly higher intestinal calcium transport compared to 1,25(OH)2D3	relatively high cell differentiation activity	0.15	lower affinity relative to 1,25-(OH)2D3; also recorded: lower affinity than 1,25(OH)2D3; also recorded: bind the vitamin D receptor	Net Bone Ca2+ Mobilization ([2]; at 780 pM dosage): 0 mg/dL; bone calcium mobilization, times less potent than the native hormone ([2]; rat, fold LESS potent in releasing bone calcium stores): approximately 50 times; transcription of the 24-hydroxylase gene, times less potent than 1,25(OH)2D3 ([1]; rat osteosarcoma cells, fold LESS potent): about 10 times; Net Intestinal Ca2+ Transport (serosal Ca2+ to mucosal Ca2+ ratio, S/M) ([3]; at 780 pM dosage): 4.3
–	–	–	C=C1C(O)CC(=CC=C2CCCC3(C)C2CCC3[C@@H](C)CCCC(C)(C)O)CC1O (single isomer, unassigned) [20R isomer of 2MD, 2-methylene-19-nor-1α,25-dihydroxyvitamin D3, reference compound]	–	−0.6	–	–	–	–	–	–	net bone calcium mobilization activity ([2]; rat): 4.5 mg/dL; HL-60 cell differentiation, times more potent than the native hormone [4]: 0.95 times
6 nM	9 nM	0.2 nM	C=C1[C@H](O)CC(=C/C=C2\CCC[C@@]3(C)C2CC[C@@H]3[C@H](C)[C@H](C)CCC(C)(C)O)C[C@H]1O (stereo partly drawn) [SAG-2, (20R,22R)-2-methylene-19-nor-22-methyl-1α,25-dihydroxyvitamin D3]	–	–	markedly lower than 1,25-(OH)2D3; also recorded: no net calcemic activity on bone; also recorded: very little to no activity in mobilizing calcium from bone stores; also recorded: little or no ability to mobilize bone calcium, even at extremely high concentrations	0.05	markedly lower than 1,25-(OH)2D3; also recorded: less potency compared to the native hormone; also recorded: little ability to increase transport, except at extremely high concentrations	–	0.3	less effective than 1,25-(OH)2D3; also recorded: bind the vitamin D receptor	Net Bone Ca2+ Mobilization ([2]; at 260 pM dosage): −0.1^7 mg/dL; Net Intestinal Ca2+ Transport (serosal Ca2+ to mucosal Ca2+ ratio, S/M) ([3]; at 260 pM dosage): 0.4^7; affinity for the nuclear vitamin D receptor, times less than 1,25(OH)2D3 ([5]; competitive binding, fold LESS affinity than native hormone): approximately 4 times
0.3 nM	0.6 nM	0.09 nM	C=C1[C@H](O)CC(=C/C=C2\CCC[C@@]3(C)C2CC[C@@H]3[C@H](C)[C@@H](C)CCC(C)(C)O)C[C@H]1O (stereo partly drawn) [SAG-1, (20R,22S)-2-methylene-19-nor-22-methyl-1α,25-dihydroxyvitamin D3]	approximately equal in potency to 1,25(OH)2D3	–	less potent than 1,25-(OH)2D3; also recorded: no net calcemic activity on bone; also recorded: less potent than the native hormone; also recorded: little or no ability to mobilize bone calcium except at extremely high doses	10	comparable or reduced potency in comparison to 1,25(OH)2D3 at lower concentrations but increased potency in comparison to 1,25(OH)2D3 at high concentrations	relatively high cell differentiation activity	3.3	bind the vitamin D receptor	Net Bone Ca2+ Mobilization ([2]; at 260 pM dosage): 0.3^7 mg/dL; Net Intestinal Ca2+ Transport (serosal Ca2+ to mucosal Ca2+ ratio, S/M) ([3]; at 260 pM dosage): 1.3^7
